Assay results published in PubChem BioAssay (NCI).
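Abbreviation: GI50, concentration required for 50% inhibition of growth. At the TGI there is no net growth.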

Columns and labels:
Experiment in all cases: growth of human tumour cells (NCI), 384-well format
NCI-H226 lung = system: NCI-H226 lung
MDA-MB-435 melanoma = system: MDA-MB-435 melanoma
COLO 205 colon = system: COLO 205 colon
HCT-116 colon = system: HCT-116 colon
K-562 leukemia = system: K-562 leukemia
HCC-2998 colon = system: HCC-2998 colon
SK-MEL-5 melanoma = system: SK-MEL-5 melanoma
A498 renal = system: A498 renal
OVCAR-3 ovarian = system: OVCAR-3 ovarian
DU-145 prostate = system: DU-145 prostate
SK-OV-3 ovarian = system: SK-OV-3 ovarian
OVCAR-4 ovarian = system: OVCAR-4 ovarian
M14 melanoma = system: M14 melanoma
TK-10 renal = system: TK-10 renal
NCI-H322M lung = system: NCI-H322M lung
LOX IMVI melanoma = system: LOX IMVI melanoma
HT29 colon = system: HT29 colon
A549 NSCLC = system: A549 NSCLC
OVCAR-8 ovarian = system: OVCAR-8 ovarian
HOP-62 NSCLC = system: HOP-62 NSCLC
T-47D breast = system: T-47D breast
UACC-62 melanoma = system: UACC-62 melanoma
KM12 colon = system: KM12 colon
MCF7 breast = system: MCF7 breast
BT-549 breast = system: BT-549 breast
ACHN renal = system: ACHN renal
SK-MEL-2 melanoma = system: SK-MEL-2 melanoma
U251 glioblastoma = system: U251 glioblastoma
HCT-15 colon = system: HCT-15 colon
PC-3 prostate = system: PC-3 prostate
HOP-92 NSCLC = system: HOP-92 NSCLC
NCI-H23 lung = system: NCI-H23 lung
RXF 393 renal = system: RXF 393 renal
NCI/ADR-RES ovarian = system: NCI/ADR-RES ovarian
SF-539 CNS = system: SF-539 CNS
MDA-MB-468 breast = system: MDA-MB-468 breast
OVCAR-5 ovarian = system: OVCAR-5 ovarian
786-0 renal = system: 786-0 renal
MDA-MB-231 breast = system: MDA-MB-231 breast
EKVX NSCLC = system: EKVX NSCLC
NCI-H460 NSCLC = system: NCI-H460 NSCLC
IGROV1 ovarian = system: IGROV1 ovarian
UACC-257 melanoma = system: UACC-257 melanoma
SNB-75 CNS = system: SNB-75 CNS
SN12C renal = system: SN12C renal
SF-268 CNS = system: SF-268 CNS
SW-620 colon = system: SW-620 colon
HL-60(TB) leukemia = system: HL-60(TB) leukemia
HS 578T breast = system: HS 578T breast
CAKI-1 renal = system: CAKI-1 renal
RPMI-8226 leukemia = system: RPMI-8226 leukemia
MALME-3M melanoma = system: MALME-3M melanoma
UO-31 renal = system: UO-31 renal
NCI-H522 lung = system: NCI-H522 lung
SK-MEL-28 melanoma = system: SK-MEL-28 melanoma
SF-295 CNS = system: SF-295 CNS
SNB-19 CNS = system: SNB-19 CNS
SR leukemia = system: SR leukemia
MOLT-4 leukemia = system: MOLT-4 leukemia
CCRF-CEM leukemia = system: CCRF-CEM leukemia

## CC[C@@]1(O)C(=O)OCc2c1cc1n(c2=O)Cc2cc3c(CN(C)C)c(O)ccc3nc2-1
NCI-H226 lung
  GI50: 19.9 nM
  TGI: 122 nM
MDA-MB-435 melanoma
  GI50: 181 nM
  TGI: 619 nM
COLO 205 colon
  TGI: 800 nM
HCT-116 colon
  TGI: 222 nM
K-562 leukemia
  GI50: 15.9 nM
  TGI: 253 nM
HCC-2998 colon
  GI50: 118 nM
  TGI: 311 nM
SK-MEL-5 melanoma
  GI50: 23.6 nM
  TGI: 69.1 nM
A498 renal
  GI50: 40.1 nM
  TGI: 255 nM
OVCAR-3 ovarian
  GI50: 53.3 nM
  TGI: 282 nM
DU-145 prostate
  TGI: 37.4 nM
SK-OV-3 ovarian
  GI50: 31.6 nM
  TGI: 129 nM
OVCAR-4 ovarian
  GI50: 469 nM
  TGI: 1700 nM
M14 melanoma
  GI50: 20.6 nM
  TGI: 64.7 nM
TK-10 renal
  GI50: 296 nM
  TGI: 3130 nM
NCI-H322M lung
  GI50: 143 nM
  TGI: 451 nM
LOX IMVI melanoma
  GI50: 11.4 nM
  TGI: 142 nM
HT29 colon
  GI50: 49.6 nM
  TGI: 200 nM
A549 NSCLC
  GI50: 50.1 nM
  TGI: 1220 nM
OVCAR-8 ovarian
  GI50: 17.1 nM
  TGI: 180 nM
HOP-62 NSCLC
  TGI: 17.5 nM
T-47D breast
  GI50: 21.8 nM
  TGI: 790 nM
UACC-62 melanoma
  GI50: 16 nM
  TGI: 63.2 nM
KM12 colon
  GI50: 117 nM
  TGI: 673 nM
MCF7 breast
  GI50: < 15.7 nM
  TGI: 3480 nM
BT-549 breast
  GI50: < 15.6 nM
  TGI: 71.5 nM
ACHN renal
  GI50: 20.4 nM
  TGI: 47 nM
SK-MEL-2 melanoma
  GI50: 219 nM
  TGI: 529 nM
U251 glioblastoma
  GI50: < 13 nM
  TGI: 58.1 nM
HCT-15 colon
  GI50: 50.7 nM
  TGI: 1130 nM
PC-3 prostate
  GI50: 385 nM
  TGI: > 36600 nM
HOP-92 NSCLC
  GI50: 32.4 nM
  TGI: 266 nM
NCI-H23 lung
  GI50: 18.8 nM
  TGI: 56.5 nM
RXF 393 renal
  GI50: 48.3 nM
  TGI: 143 nM
NCI/ADR-RES ovarian
  GI50: 82 nM
  TGI: 326 nM
SF-539 CNS
  GI50: 16.7 nM
  TGI: 42.6 nM
MDA-MB-468 breast
  GI50: 10.2 nM
  TGI: < 16.5 nM
OVCAR-5 ovarian
  GI50: 147 nM
  TGI: 482 nM
786-0 renal
  GI50: 18.2 nM
  TGI: 63.1 nM
MDA-MB-231 breast
  GI50: 182 nM
  TGI: 781 nM
EKVX NSCLC
  GI50: 366 nM
  TGI: 1860 nM
NCI-H460 NSCLC
  GI50: 19.8 nM
  TGI: 100 nM
IGROV1 ovarian
  GI50: 66.4 nM
  TGI: 749 nM
UACC-257 melanoma
  GI50: 154 nM
  TGI: 1540 nM
SNB-75 CNS
  GI50: 25.2 nM
  TGI: 60 nM
SN12C renal
  GI50: 22 nM
  TGI: 75.3 nM
SF-268 CNS
  TGI: 26 nM
SW-620 colon
  GI50: < 16.6 nM
  TGI: 637 nM
HL-60(TB) leukemia
  GI50: < 11.3 nM
  TGI: 23.9 nM
HS 578T breast
  GI50: < 39.9 nM
  TGI: 715 nM
CAKI-1 renal
  GI50: 22.7 nM
  TGI: 247 nM
RPMI-8226 leukemia
  GI50: 28.6 nM
  TGI: 80.9 nM
MALME-3M melanoma
  GI50: 130 nM
  TGI: 996 nM
UO-31 renal
  GI50: 41.6 nM
  TGI: 168 nM
NCI-H522 lung
  GI50: 19.8 nM
  TGI: 236 nM
SK-MEL-28 melanoma
  GI50: 72.1 nM
  TGI: 1290 nM
SF-295 CNS
  GI50: < 13.1 nM
  TGI: 26.5 nM
SNB-19 CNS
  GI50: 24.5 nM
  TGI: 228 nM

## CCC1=C[C@@H]2CN(C1)Cc1c([nH]c3ccccc13)[C@@](C(=O)OC)(c1cc3c(cc1OC)N(C)[C@H]1[C@@](O)(C(=O)OC)[C@H](OC(C)=O)[C@]4(CC)C=CCN5CC[C@]31[C@@H]54)C2
NCI-H226 lung
  GI50: 681 nM
  TGI: 18600 nM
MDA-MB-435 melanoma
  GI50: 15.5 nM
  TGI: 47.2 nM
COLO 205 colon
  GI50: 51.6 nM
  TGI: 506 nM
HCT-116 colon
  GI50: 73.9 nM
  TGI: 3920 nM
K-562 leukemia
  GI50: 42.1 nM
  TGI: 174 nM
HCC-2998 colon
  GI50: 66.7 nM
  TGI: 286 nM
SK-MEL-5 melanoma
  GI50: 22 nM
  TGI: 49.4 nM
A498 renal
  GI50: 203 nM
  TGI: 2390 nM
OVCAR-3 ovarian
  GI50: 34.3 nM
  TGI: 171 nM
DU-145 prostate
  GI50: 139 nM
  TGI: 1740 nM
SK-OV-3 ovarian
  GI50: 113 nM
  TGI: 5850 nM
OVCAR-4 ovarian
  GI50: 2670 nM
  TGI: > 62600 nM
M14 melanoma
  GI50: 214 nM
  TGI: 13400 nM
SR leukemia
  GI50: < 10 nM
  TGI: 16.1 nM
TK-10 renal
  GI50: 1110 nM
  TGI: 18600 nM
NCI-H322M lung
  GI50: 645 nM
  TGI: 17800 nM
LOX IMVI melanoma
  GI50: 171 nM
  TGI: 9700 nM
HT29 colon
  GI50: 58.5 nM
  TGI: 1100 nM
A549 NSCLC
  GI50: 270 nM
  TGI: 11800 nM
OVCAR-8 ovarian
  GI50: 237 nM
  TGI: 768 nM
HOP-62 NSCLC
  GI50: 212 nM
  TGI: 12600 nM
T-47D breast
  GI50: 10600 nM
  TGI: 25500 nM
UACC-62 melanoma
  GI50: 35.9 nM
  TGI: 901 nM
KM12 colon
  GI50: 50.8 nM
  TGI: 4300 nM
MCF7 breast
  GI50: 65.1 nM
  TGI: 4760 nM
BT-549 breast
  GI50: 64.3 nM
  TGI: 710 nM
ACHN renal
  GI50: 2770 nM
  TGI: 24500 nM
SK-MEL-2 melanoma
  GI50: 37 nM
  TGI: 216 nM
U251 glioblastoma
  GI50: 75.4 nM
  TGI: 1810 nM
HCT-15 colon
  GI50: 971 nM
  TGI: 8150 nM
PC-3 prostate
  GI50: 210 nM
  TGI: 12600 nM
HOP-92 NSCLC
  GI50: 993 nM
  TGI: 11900 nM
NCI-H23 lung
  GI50: 251 nM
  TGI: 881 nM
NCI/ADR-RES ovarian
  GI50: 24800 nM
  TGI: > 64300 nM
SF-539 CNS
  GI50: 76.5 nM
  TGI: 243 nM
MDA-MB-468 breast
  GI50: 17.4 nM
  TGI: 35.5 nM
MOLT-4 leukemia
  GI50: 20.2 nM
  TGI: 36.6 nM
CCRF-CEM leukemia
  GI50: 53.5 nM
  TGI: 104 nM
OVCAR-5 ovarian
  GI50: 638 nM
  TGI: 19700 nM
786-0 renal
  GI50: 367 nM
  TGI: 6050 nM
MDA-MB-231 breast
  GI50: 314 nM
  TGI: 14200 nM
EKVX NSCLC
  GI50: 650 nM
  TGI: 16200 nM
NCI-H460 NSCLC
  GI50: 69.4 nM
  TGI: 220 nM
IGROV1 ovarian
  GI50: 652 nM
  TGI: > 32700 nM
UACC-257 melanoma
  GI50: 1260 nM
  TGI: 15400 nM
SNB-75 CNS
  GI50: 48.8 nM
  TGI: 126 nM
SN12C renal
  GI50: 210 nM
  TGI: 20100 nM
SF-268 CNS
  GI50: 228 nM
  TGI: 12900 nM
SW-620 colon
  GI50: 155 nM
  TGI: 15100 nM
HL-60(TB) leukemia
  GI50: 20.1 nM
  TGI: 37.8 nM
HS 578T breast
  GI50: 63.3 nM
  TGI: 174 nM
CAKI-1 renal
  GI50: 651 nM
  TGI: 8980 nM
RPMI-8226 leukemia
  GI50: 33.6 nM
  TGI: 83.4 nM
MALME-3M melanoma
  GI50: 120 nM
  TGI: 18700 nM
UO-31 renal
  GI50: 4510 nM
  TGI: 17900 nM
NCI-H522 lung
  GI50: 20.9 nM
  TGI: 46.2 nM
SK-MEL-28 melanoma
  GI50: 1520 nM
  TGI: 16100 nM
SF-295 CNS
  GI50: 95.1 nM
  TGI: 239 nM
SNB-19 CNS
  GI50: 180 nM
  TGI: 4700 nM
